Test results: PMC9856672, “SGC-CAMKK2-1: A Chemical Probe for CAMKK2” (Cells, 2023)

Assays:
PAK6 = biological target: T1, PAK6 (Homo sapiens, UniProt Q9NQU5); assay: KINOMEscan 1 μM, PAK6; assay type: binding; conditions: 1000 nM; Entrez PAK6; read-out: Percent Control
T1 construct: purchased Eurofins DiscoverX KINOMEscan
Excerpt: (§1) Supplement cells-12-00287-s001.zip/File S2. KinomeScan data for the CAMKK2 probe and negative control.xlsx, sheet "SGC-CAMKK2-1" | column: Percent Control

FLT3(K663Q) = biological target: T2, FLT3(K663Q) (Homo sapiens, UniProt P36888, K663Q); assay: KINOMEscan 1 μM, FLT3(K663Q); assay type: binding; conditions: 1000 nM; Entrez FLT3; read-out: Percent Control
T2 construct: purchased Eurofins DiscoverX KINOMEscan
Excerpt: as §1

CSNK1E = biological target: T3, CSNK1E (Homo sapiens, UniProt P49674); assay: KINOMEscan 1 μM, CSNK1E; assay type: binding; conditions: 1000 nM; Entrez CSNK1E; read-out: Percent Control
T3 construct: purchased Eurofins DiscoverX KINOMEscan
Excerpt: as §1

ASK2 = biological target: T4, ASK2 (Homo sapiens, UniProt O95382); assay: KINOMEscan 1 μM, ASK2; assay type: binding; conditions: 1000 nM; Entrez MAP3K6; read-out: Percent Control
T4 construct: purchased Eurofins DiscoverX KINOMEscan
Excerpt: as §1

DCAMKL3 = biological target: T5, DCAMKL3 (Homo sapiens, UniProt Q9C098); assay: KINOMEscan 1 μM, DCAMKL3; assay type: binding; conditions: 1000 nM; Entrez DCLK3; read-out: Percent Control
T5 construct: purchased Eurofins DiscoverX KINOMEscan
Excerpt: as §1

ICK = biological target: T6, ICK (Homo sapiens, UniProt Q9UPZ9); assay: KINOMEscan 1 μM, ICK; assay type: binding; conditions: 1000 nM; Entrez ICK; read-out: Percent Control
T6 construct: purchased Eurofins DiscoverX KINOMEscan
Excerpt: as §1

LKB1 = biological target: T7, LKB1 (Homo sapiens, UniProt Q15831); assay: KINOMEscan 1 μM, LKB1; assay type: binding; conditions: 1000 nM; Entrez STK11; read-out: Percent Control
T7 construct: purchased Eurofins DiscoverX KINOMEscan
Excerpt: as §1

PYK2 = biological target: T8, PYK2 (Homo sapiens, UniProt Q14289); assay: DiscoverX KINOMEscan binding assay at 1 μM, PYK2; conditions: PYK2 (PTK2B); Compound Concentration 1000 nM; read-out: Percent Control
T8 construct: purchased Eurofins DiscoverX KINOMEscan
Excerpt: as §1

PRKCD = biological target: T9, PRKCD (Homo sapiens, UniProt Q05655); assay: DiscoverX KINOMEscan binding assay at 1 μM, PRKCD; conditions: Compound Concentration 1000 nM, read-out: Percent Control
T9 construct: purchased Eurofins DiscoverX KINOMEscan
Excerpt: as §1

ERK3 = biological target: T10, ERK3 (Homo sapiens, UniProt Q16659); assay: KINOMEscan 1 μM, ERK3; assay type: binding; conditions: 1000 nM; Entrez MAPK6; read-out: Percent Control
T10 construct: purchased Eurofins DiscoverX KINOMEscan
Excerpt: as §1

PIKFYVE = biological target: T11, PIKFYVE (Homo sapiens, UniProt Q9Y2I7); assay: KINOMEscan 1 μM, PIKFYVE; assay type: binding; conditions: 1000 nM; Entrez PIKFYVE; read-out: Percent Control
T11 construct: purchased Eurofins DiscoverX KINOMEscan
Excerpt: as §1

MET(Y1235D) = biological target: T12, MET(Y1235D) (Homo sapiens, UniProt P08581, Y1235D); assay: KINOMEscan 1 μM, MET(Y1235D); assay type: binding; conditions: 1000 nM; Entrez MET; read-out: Percent Control
T12 construct: purchased Eurofins DiscoverX KINOMEscan
Excerpt: as §1

HPK1 = biological target: T13, HPK1 (Homo sapiens, UniProt Q92918); assay: KINOMEscan 1 μM, HPK1; assay type: binding; conditions: 1000 nM; Entrez MAP4K1; read-out: Percent Control
T13 construct: purchased Eurofins DiscoverX KINOMEscan
Excerpt: as §1

CDK4-cyclinD3 = biological target: T14, CDK4-cyclinD3 (Homo sapiens, UniProt P11802); assay: KINOMEscan 1 μM, CDK4-cyclinD3; assay type: binding; conditions: 1000 nM; Entrez CDK4; read-out: Percent Control
T14 construct: purchased Eurofins DiscoverX KINOMEscan
Excerpt: as §1

PIK4CB = biological target: T15, PIK4CB (Homo sapiens, UniProt Q9UBF8); assay: DiscoverX KINOMEscan binding assay at 1 μM, PIK4CB; conditions: PIK4CB (PI4KB); Compound Concentration 1000 nM; read-out: Percent Control
T15 construct: purchased Eurofins DiscoverX KINOMEscan
Excerpt: as §1

FGFR3(G697C) = biological target: T16, FGFR3(G697C) (Homo sapiens, UniProt P22607, G697C); assay: KINOMEscan 1 μM, FGFR3(G697C); assay type: binding; conditions: 1000 nM; Entrez FGFR3; read-out: Percent Control
T16 construct: purchased Eurofins DiscoverX KINOMEscan
Excerpt: as §1

RET(V804M) = biological target: T17, RET(V804M) (Homo sapiens, UniProt P07949, V804M); assay: DiscoverX KINOMEscan binding assay at 1 μM, RET(V804M); conditions: Compound Concentration 1000 nM, read-out: Percent Control
T17 construct: purchased Eurofins DiscoverX KINOMEscan
Excerpt: as §1

PIM1 = biological target: T18, PIM1 (Homo sapiens, UniProt P11309); assay: KINOMEscan 1 μM, PIM1; assay type: binding; conditions: 1000 nM; Entrez PIM1; read-out: Percent Control
T18 construct: purchased Eurofins DiscoverX KINOMEscan
Excerpt: as §1

KIT(D816H) = biological target: T19, KIT(D816H) (Homo sapiens, UniProt P10721, D816H); assay: KINOMEscan 1 μM, KIT(D816H); assay type: binding; conditions: 1000 nM; Entrez KIT; read-out: Percent Control
T19 construct: purchased Eurofins DiscoverX KINOMEscan
Excerpt: as §1

[1] = biological target: T20, TYK2(JH2domain-pseudokinase) (Homo sapiens, UniProt P29597); assay: DiscoverX KINOMEscan binding assay at 1 μM, TYK2(JH2domain-pseudokinase); conditions: Compound Concentration 1000 nM, read-out: Percent Control
T20 construct: TYK2(JH2domain-pseudokinase); purchased Eurofins DiscoverX KINOMEscan
Excerpt: as §1

PRKD3 = biological target: T21, PRKD3 (Homo sapiens, UniProt O94806); assay: KINOMEscan at 1 μM, PRKD3; assay type: binding; conditions: 1000 nM, read-out: Percent Control
T21 construct: purchased Eurofins DiscoverX KINOMEscan
Excerpt: (§2) Supplement cells-12-00287-s001.zip/File S2. KinomeScan data for the CAMKK2 probe and negative control.xlsx, sheet "SGC-CAMKK2-1N" | column: Percent Control

RIOK1 = biological target: T22, RIOK1 (Homo sapiens, UniProt Q9BRS2); assay: KINOMEscan at 1 μM, RIOK1; assay type: binding; conditions: 1000 nM, read-out: Percent Control
T22 construct: purchased Eurofins DiscoverX KINOMEscan
Excerpt: as §2

KIT(V559D) = biological target: T23, KIT(V559D) (Homo sapiens, UniProt P10721, V559D); assay: KINOMEscan at 1 μM, KIT(V559D); assay type: binding; conditions: 1000 nM, read-out: Percent Control
T23 construct: purchased Eurofins DiscoverX KINOMEscan
Excerpt: as §2

MYO3A = biological target: T24, MYO3A (Homo sapiens, UniProt Q8NEV4); assay: KINOMEscan at 1 μM, MYO3A; assay type: binding; conditions: 1000 nM, read-out: Percent Control
T24 construct: purchased Eurofins DiscoverX KINOMEscan
Excerpt: as §2

DAPK2 = biological target: T25, DAPK2 (Homo sapiens, UniProt Q9UIK4); assay: KINOMEscan at 1 μM, DAPK2; assay type: binding; conditions: 1000 nM, read-out: Percent Control
T25 construct: purchased Eurofins DiscoverX KINOMEscan
Excerpt: as §2

TNIK = biological target: T26, TNIK (Homo sapiens, UniProt Q9UKE5); assay: KINOMEscan at 1 μM, TNIK; assay type: binding; conditions: 1000 nM, read-out: Percent Control
T26 construct: purchased Eurofins DiscoverX KINOMEscan
Excerpt: as §2

TAOK2 = biological target: T27, TAOK2 (Homo sapiens, UniProt Q9UL54); assay: KINOMEscan at 1 μM, TAOK2; assay type: binding; conditions: 1000 nM, read-out: Percent Control
T27 construct: purchased Eurofins DiscoverX KINOMEscan
Excerpt: as §2

GRK3 = biological target: T28, GRK3 (Homo sapiens, UniProt P35626); assay: KINOMEscan at 1 μM, GRK3; assay type: binding; conditions: 1000 nM, read-out: Percent Control
T28 construct: purchased Eurofins DiscoverX KINOMEscan
Excerpt: as §2

NEK10 = biological target: T29, NEK10 (Homo sapiens, UniProt Q6ZWH5); assay: KINOMEscan at 1 μM, NEK10; assay type: binding; conditions: 1000 nM, read-out: Percent Control
T29 construct: purchased Eurofins DiscoverX KINOMEscan
Excerpt: as §2

ULK1 = biological target: T30, ULK1 (Homo sapiens, UniProt O75385); assay: KINOMEscan at 1 μM, ULK1; assay type: binding; conditions: 1000 nM, read-out: Percent Control
T30 construct: purchased Eurofins DiscoverX KINOMEscan
Excerpt: as §2

SYK = biological target: T31, SYK (Homo sapiens, UniProt P43405); assay: KINOMEscan binding assay at 1 μM, SYK; conditions: Compound Concentration 1000 nM; read-out: Percent Control
T31 construct: purchased Eurofins DiscoverX KINOMEscan
Excerpt: as §2

CDKL5 = biological target: T32, CDKL5 (Homo sapiens, UniProt O76039); assay: KINOMEscan at 1 μM, CDKL5; assay type: binding; conditions: 1000 nM, read-out: Percent Control
T32 construct: purchased Eurofins DiscoverX KINOMEscan
Excerpt: as §2

T24 sequence (Q8NEV4 whole entry): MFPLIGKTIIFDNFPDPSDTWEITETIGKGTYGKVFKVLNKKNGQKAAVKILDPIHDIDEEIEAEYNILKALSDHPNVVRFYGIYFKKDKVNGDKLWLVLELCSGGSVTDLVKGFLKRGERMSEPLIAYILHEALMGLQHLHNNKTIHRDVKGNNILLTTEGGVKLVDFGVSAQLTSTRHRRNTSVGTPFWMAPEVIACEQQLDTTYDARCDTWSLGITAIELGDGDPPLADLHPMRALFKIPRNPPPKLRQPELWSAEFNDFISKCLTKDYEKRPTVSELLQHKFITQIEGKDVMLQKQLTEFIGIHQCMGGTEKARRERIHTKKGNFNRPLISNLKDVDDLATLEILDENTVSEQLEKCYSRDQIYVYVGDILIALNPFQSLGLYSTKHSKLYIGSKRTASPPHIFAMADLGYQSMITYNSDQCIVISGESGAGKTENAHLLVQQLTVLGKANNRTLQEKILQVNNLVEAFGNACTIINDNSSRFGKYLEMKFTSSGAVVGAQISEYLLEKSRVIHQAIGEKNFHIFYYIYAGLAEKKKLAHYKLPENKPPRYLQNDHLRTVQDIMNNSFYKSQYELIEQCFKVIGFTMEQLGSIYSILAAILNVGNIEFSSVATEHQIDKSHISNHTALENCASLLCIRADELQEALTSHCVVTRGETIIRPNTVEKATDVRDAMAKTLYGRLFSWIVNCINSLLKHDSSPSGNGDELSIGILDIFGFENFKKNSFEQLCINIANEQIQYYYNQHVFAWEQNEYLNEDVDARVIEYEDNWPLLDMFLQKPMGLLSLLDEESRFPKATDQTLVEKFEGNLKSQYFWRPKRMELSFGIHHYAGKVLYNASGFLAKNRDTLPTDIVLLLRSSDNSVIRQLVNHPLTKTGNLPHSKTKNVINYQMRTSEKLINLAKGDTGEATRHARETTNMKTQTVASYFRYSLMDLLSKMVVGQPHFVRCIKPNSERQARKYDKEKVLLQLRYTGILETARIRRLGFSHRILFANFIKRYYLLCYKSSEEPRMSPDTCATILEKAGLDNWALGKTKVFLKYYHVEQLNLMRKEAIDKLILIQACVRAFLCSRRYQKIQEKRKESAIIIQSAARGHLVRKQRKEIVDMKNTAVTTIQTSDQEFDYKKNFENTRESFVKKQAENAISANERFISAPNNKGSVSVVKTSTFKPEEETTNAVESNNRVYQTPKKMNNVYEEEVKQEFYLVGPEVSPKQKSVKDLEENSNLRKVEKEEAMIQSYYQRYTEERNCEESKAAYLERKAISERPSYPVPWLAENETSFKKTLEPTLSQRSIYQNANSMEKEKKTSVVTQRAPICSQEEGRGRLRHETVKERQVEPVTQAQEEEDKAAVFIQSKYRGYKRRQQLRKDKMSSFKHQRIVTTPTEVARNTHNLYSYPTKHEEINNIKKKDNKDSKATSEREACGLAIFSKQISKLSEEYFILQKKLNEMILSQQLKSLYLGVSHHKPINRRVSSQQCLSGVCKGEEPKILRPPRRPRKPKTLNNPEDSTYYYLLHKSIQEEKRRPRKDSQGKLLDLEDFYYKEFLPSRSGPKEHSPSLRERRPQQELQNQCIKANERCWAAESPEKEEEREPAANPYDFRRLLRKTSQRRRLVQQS
T14 sequence (P11802 whole entry): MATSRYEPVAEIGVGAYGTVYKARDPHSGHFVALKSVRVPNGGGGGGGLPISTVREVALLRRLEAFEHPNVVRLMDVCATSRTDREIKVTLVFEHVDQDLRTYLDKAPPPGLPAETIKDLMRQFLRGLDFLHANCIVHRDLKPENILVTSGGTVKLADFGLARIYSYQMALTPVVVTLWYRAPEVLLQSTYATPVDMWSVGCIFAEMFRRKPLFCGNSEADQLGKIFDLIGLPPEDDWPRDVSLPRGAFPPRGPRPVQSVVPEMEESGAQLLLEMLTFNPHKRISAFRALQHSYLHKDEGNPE
T14 sequence (P30281 whole entry partner): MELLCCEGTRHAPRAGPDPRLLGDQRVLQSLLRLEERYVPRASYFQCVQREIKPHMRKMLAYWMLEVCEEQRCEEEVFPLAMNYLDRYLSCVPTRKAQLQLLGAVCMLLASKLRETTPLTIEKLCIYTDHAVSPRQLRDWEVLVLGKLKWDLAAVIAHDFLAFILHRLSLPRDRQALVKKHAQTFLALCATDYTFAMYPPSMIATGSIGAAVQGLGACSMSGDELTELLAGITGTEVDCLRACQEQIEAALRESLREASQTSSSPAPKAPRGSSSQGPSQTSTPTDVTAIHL
T6 sequence (Q9UPZ9 whole entry): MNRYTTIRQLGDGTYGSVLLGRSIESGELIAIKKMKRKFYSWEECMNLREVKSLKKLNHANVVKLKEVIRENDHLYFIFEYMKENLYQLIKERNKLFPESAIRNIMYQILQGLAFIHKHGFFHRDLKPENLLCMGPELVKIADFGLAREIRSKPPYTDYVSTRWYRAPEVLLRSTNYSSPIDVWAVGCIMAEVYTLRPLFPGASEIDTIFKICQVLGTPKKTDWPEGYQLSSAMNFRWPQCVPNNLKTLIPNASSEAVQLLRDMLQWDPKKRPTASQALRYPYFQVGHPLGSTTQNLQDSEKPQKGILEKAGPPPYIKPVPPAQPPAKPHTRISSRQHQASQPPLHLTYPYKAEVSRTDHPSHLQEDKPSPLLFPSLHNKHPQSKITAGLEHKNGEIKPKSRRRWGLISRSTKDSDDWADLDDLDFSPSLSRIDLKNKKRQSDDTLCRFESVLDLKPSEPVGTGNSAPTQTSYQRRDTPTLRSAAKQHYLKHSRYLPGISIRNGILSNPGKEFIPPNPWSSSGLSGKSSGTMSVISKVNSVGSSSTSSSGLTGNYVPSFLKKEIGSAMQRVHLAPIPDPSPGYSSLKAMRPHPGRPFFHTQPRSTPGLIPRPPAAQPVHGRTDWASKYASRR
T28 sequence (P35626 whole entry): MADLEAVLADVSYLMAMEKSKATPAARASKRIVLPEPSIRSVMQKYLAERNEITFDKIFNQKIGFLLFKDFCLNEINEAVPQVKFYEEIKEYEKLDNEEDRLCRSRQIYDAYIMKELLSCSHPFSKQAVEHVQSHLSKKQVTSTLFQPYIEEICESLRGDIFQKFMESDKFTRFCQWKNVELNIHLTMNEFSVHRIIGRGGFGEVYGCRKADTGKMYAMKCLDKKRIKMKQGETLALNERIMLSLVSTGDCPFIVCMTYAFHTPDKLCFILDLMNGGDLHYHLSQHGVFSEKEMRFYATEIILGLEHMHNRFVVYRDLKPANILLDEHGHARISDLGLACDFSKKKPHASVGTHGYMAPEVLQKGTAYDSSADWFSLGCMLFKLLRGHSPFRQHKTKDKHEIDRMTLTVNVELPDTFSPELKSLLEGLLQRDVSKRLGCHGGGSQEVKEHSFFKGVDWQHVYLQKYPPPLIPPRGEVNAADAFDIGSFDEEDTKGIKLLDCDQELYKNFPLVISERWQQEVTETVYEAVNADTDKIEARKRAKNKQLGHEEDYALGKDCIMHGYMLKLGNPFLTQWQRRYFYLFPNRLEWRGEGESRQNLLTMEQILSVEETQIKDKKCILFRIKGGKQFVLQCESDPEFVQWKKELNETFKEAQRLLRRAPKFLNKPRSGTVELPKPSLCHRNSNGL
T1 sequence (Q9NQU5 whole entry): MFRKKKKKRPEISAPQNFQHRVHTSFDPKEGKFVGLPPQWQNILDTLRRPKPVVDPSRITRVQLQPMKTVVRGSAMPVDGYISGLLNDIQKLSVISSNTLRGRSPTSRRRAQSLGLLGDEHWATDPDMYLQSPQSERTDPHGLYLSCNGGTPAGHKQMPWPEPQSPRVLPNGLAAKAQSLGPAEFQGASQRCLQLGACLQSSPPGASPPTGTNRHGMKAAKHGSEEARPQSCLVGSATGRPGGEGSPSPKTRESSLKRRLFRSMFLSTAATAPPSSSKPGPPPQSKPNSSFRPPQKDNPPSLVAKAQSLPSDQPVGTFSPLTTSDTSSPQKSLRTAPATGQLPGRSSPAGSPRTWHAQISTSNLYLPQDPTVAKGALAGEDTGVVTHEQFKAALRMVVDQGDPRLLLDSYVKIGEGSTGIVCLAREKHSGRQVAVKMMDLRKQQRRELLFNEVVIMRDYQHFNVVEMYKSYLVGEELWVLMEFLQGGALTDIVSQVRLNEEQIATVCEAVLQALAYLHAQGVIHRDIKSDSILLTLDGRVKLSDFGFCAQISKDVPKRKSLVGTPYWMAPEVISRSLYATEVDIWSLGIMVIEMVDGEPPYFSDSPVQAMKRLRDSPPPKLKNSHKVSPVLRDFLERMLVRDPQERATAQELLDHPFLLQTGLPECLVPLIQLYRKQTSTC
T7 sequence (Q15831 whole entry): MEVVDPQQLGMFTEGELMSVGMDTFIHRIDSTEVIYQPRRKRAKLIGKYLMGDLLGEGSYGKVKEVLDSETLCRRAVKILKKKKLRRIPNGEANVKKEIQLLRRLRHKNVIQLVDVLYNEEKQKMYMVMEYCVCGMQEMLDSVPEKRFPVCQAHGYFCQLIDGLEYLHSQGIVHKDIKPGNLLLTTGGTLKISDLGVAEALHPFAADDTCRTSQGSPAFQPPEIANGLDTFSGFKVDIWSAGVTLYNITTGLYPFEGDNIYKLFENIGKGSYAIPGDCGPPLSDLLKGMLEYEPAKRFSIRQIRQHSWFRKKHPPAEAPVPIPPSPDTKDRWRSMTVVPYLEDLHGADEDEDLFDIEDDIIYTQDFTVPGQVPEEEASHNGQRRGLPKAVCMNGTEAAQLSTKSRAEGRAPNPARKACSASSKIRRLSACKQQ
T25 sequence (Q9UIK4 whole entry): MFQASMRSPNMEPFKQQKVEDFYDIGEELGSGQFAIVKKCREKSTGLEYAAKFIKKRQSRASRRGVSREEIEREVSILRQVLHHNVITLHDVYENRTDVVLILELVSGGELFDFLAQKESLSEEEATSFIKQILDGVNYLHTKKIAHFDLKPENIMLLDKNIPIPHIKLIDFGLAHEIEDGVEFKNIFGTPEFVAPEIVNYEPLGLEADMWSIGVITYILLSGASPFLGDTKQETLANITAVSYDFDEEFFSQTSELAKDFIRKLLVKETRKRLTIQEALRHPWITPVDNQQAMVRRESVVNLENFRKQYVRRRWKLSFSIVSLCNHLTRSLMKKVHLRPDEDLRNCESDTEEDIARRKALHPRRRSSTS

Cc1cccc(-c2cnc3occ(-c4ccc(C(=O)O)c(C5CCCC5)c4)c3c2)c1 [SGC-CAMKK2-1 (YL-36)]
remaining binding at 1 µM (PAK6): 67%
remaining binding at 1 µM (FLT3(K663Q)): 100%
remaining binding at 1 µM (CSNK1E): 75%
remaining binding at 1 µM (ASK2): 96%
remaining binding at 1 µM (DCAMKL3): 100%
remaining binding at 1 µM (ICK): 100%
remaining binding at 1 µM (LKB1): 78%
remaining binding at 1 µM (PYK2): 100%
remaining binding at 1 µM (PRKCD): 100%
remaining binding at 1 µM (ERK3): 81%
remaining binding at 1 µM (PIKFYVE): 80%
remaining binding at 1 µM (MET(Y1235D)): 98%
remaining binding at 1 µM (HPK1): 100%
remaining binding at 1 µM (CDK4-cyclinD3): 100%
remaining binding at 1 µM (PIK4CB): 100%
remaining binding at 1 µM (FGFR3(G697C)): 100%
remaining binding at 1 µM (RET(V804M)): 100%
remaining binding at 1 µM (PIM1): 76%
remaining binding at 1 µM (KIT(D816H)): 87%
remaining binding at 1 µM [1]: 100%

O=C(O)c1ccc(-c2coc3ncc(-c4ccccc4)cc23)cc1Cl [SGC-CAMKK2-1N (UNC-YL-83)]
remaining binding at 1 µM (PRKD3): 93%
remaining binding at 1 µM (RIOK1): 91%
remaining binding at 1 µM (KIT(V559D)): 70%
remaining binding at 1 µM (MYO3A): 72%
remaining binding at 1 µM (DAPK2): 70%
remaining binding at 1 µM (TNIK): 73%
remaining binding at 1 µM (TAOK2): 78%
remaining binding at 1 µM (GRK3): 66%
remaining binding at 1 µM (NEK10): 82%
remaining binding at 1 µM (ULK1): 66%
remaining binding at 1 µM (SYK): 100%
remaining binding at 1 µM (CDKL5): 100%
